# Data taken from patent US20090156646A1, “PYRIDYLPHENOL COMPOUND AND USE THEREOF” (TAKEDA PHARMACEUTICAL COMPANY LIMITED, priority 2005, published 2009).
# Structures can show the parent of a compound that is named as a salt.
row,melting point,SMILES
1,209 to 210 °C,"CC(=O)NCCC(=O)Nc1cccc(-c2cc(-c3ccc(Cl)cc3O)nc(NC(=O)c3cccs3)c2C#N)c1 [Example 59, N-[4-{3-[(N-acetyl-β-alanyl)amino]phenyl}-6-(4-chloro-2-hydroxyphenyl)-3-cyanopyridin-2-yl]thiophene-2-carboxamide]"
2,214 to 220 °C,"NCCC(=O)Nc1cccc(-c2cc(NC(=O)c3cccs3)nc(-c3ccccc3O)c2)c1 (as salt: hydrochloride) [Example 27, N-{4-[3-(β-alanylamino)phenyl]-6-(2-hydroxyphenyl)pyridin-2-yl}thiophene-2-carboxamide dihydrochloride]"
3,284 to 285 °C,Cl.N#Cc1c(-c2ccc(F)c(N)c2)cc(-c2ccc(F)cc2O)nc1NC(=O)c1ccco1
4,244 to 246 °C,Cl.N#Cc1c(-c2cccc(N3CCOCC3)c2)cc(-c2ccc(F)cc2O)nc1NC(=O)c1ccco1
5,195 to 200 °C,"CN(C)C[C@@H](C(=O)Nc1cccc(-c2cc(-c3ccc(F)cc3O)nc(NC(=O)c3ccco3)c2C#N)c1)N(C)C (as salt: hydrochloride) [Example 305, N-[3-cyano-4-(3-{[3-(dimethylamino)-N,N-dimethyl-L-alanyl]amino}phenyl)-6-(4-fluoro-2-hydroxyphenyl)pyridin-2-yl]-2-furamide dihydrochloride]"
6,205 to 210 °C,"N#Cc1c(-c2cccc(NC(=O)CCN)c2)cc(-c2cc(Cl)ccc2O)nc1NC(=O)c1ccccc1 (as salt: trifluoroacetate) [Example 47, N-{4-[3-(β-alanylamino)phenyl]-6-(5-chloro-2-hydroxyphenyl)-3-cyanopyridin-2-yl}benzamide trifluoroacetate]"
7,245 to 246 °C,"CCCNC(=O)c1cccc(-c2cc(-c3ccccc3O)nc(NC(=O)c3cccs3)c2C#N)c1 [Example 34, N-(3-cyano-6-(2-hydroxyphenyl)-4-{3-[(propylamino)carbonyl]phenyl}pyridin-2-yl)thiophene-2-carboxamide]"
8,232 to 233 °C,Cl.N#Cc1c(-c2cccc(C(=O)NC3CCCNC3)c2)cc(-c2ccccc2O)nc1NC(=O)c1cccs1 (stereo not drawn)
9,160 to 167 °C,"COc1cccc(O)c1-c1cc(-c2cccc(NC(=O)CCN)c2)c(C#N)c(NC(=O)c2ccccc2)n1 (as salt: trifluoroacetate) [Example 52, N-{4-[3-(β-alanylamino)phenyl]-3-cyano-6-(2-hydroxy-6-methoxyphenyl)pyridin-2-yl}benzamide trifluoroacetate]"
10,225 to 229 °C,Cl.N#Cc1c(-c2cccc(C(=O)NC3CCCNC3)c2)cc(-c2ccccc2O)nc1NC(=O)c1cc2ccccc2s1 (stereo not drawn)
11,213 to 218 °C,Cl.N#Cc1c(-c2cccc(NC(=O)[C@H]3CCCN3)c2)cc(-c2ccccc2O)nc1NC(=O)c1cccs1
12,204 to 210 °C,"N#Cc1c(-c2cccc(C(=O)NC3CCCNC3)c2)cc(-c2ccccc2O)nc1NC(=O)c1ccccn1 (stereo not drawn) (as salt: hydrochloride) [Example 10, N-(3-cyano-6-(2-hydroxyphenyl)-4-{3-[(piperidin-3-ylamino)carbonyl]phenyl}pyridin-2-yl)pyridin-2-carboxamide dihydrochloride]"
13,253 to 254 °C,"N#Cc1c(-c2cccc(C(=O)N3CCOCC3)c2)cc(-c2ccccc2O)nc1NC(=O)c1cccs1 [Example 36, N-{3-cyano-6-(2-hydroxyphenyl)-4-[3-(morpholin-4-ylcarbonyl)phenyl]pyridin-2-yl}thiophene-2-carboxamide]"
14,292 to 293 °C,"N#Cc1c(-c2ccc(N)cc2)cc(-c2ccccc2O)nc1NC(=O)c1cccs1 [Example 48, N-[4-(4-aminophenyl)-3-cyano-6-(2-hydroxyphenyl)pyridin-2-yl]thiophene-2-carboxamide]"
15,257 to 260 °C,"N#Cc1c(-c2cccc(N)c2)cc(-c2ccccc2O)nc1NC(=O)c1ccsc1 [Example 33, N-[4-(3-aminophenyl)-3-cyano-6-(2-hydroxyphenyl)pyridin-2-yl]thiophene-3-carboxamide]"
16,210 to 216 °C,"CN(C)c1ccc(-c2cc(-c3ccccc3O)nc(NC(=O)c3cccs3)c2C#N)cc1C(=O)NCCN (as salt: hydrochloride) [Example 248, N-[4-[3-{[(2-aminoethyl)amino]carbonyl}-4-(dimethylamino)phenyl]-3-cyano-6-(2-hydroxyphenyl)pyridin-2-yl]thiophene-2-carboxamide dihydrochloride]"
17,161 to 162 °C,"Nc1cccc(-c2cc(NC(=O)c3cccs3)nc(-c3ccccc3O)c2)c1 [Example 25, N-[4-(3-aminophenyl)-6-(2-hydroxyphenyl)pyridin-2-yl]thiophene-2-carboxamide]"
18,215 to 222 °C,"CCN1CCN(Cc2cccc(-c3cc(-c4ccc(F)cc4O)nc(NC(=O)c4ccco4)c3C#N)c2)CC1 (as salt: hydrochloride) [Example 334, N-[3-cyano-4-{3-[(4-ethylpiperazin-1-yl)methyl]phenyl}-6-(4-fluoro-2-hydroxyphenyl)pyridin-2-yl]-2-furamide dihydrochloride]"

row,melting point,SMILES
1,206 to 214 °C,"N#Cc1c(-c2cccc(NC(=O)[C@@H](N)Cc3cnc[nH]3)c2)cc(-c2ccc(Cl)cc2O)nc1NC(=O)c1ccco1 (as salt: hydrochloride) [Example 243, N-{3-[6-(4-chloro-2-hydroxyphenyl)-3-cyano-2-(2-furoylamino)pyridin-4-yl]phenyl}-L-histidinamide dihydrochloride]"
2,205 to 210 °C,"CN1CCN(Cc2cccc(-c3cc(-c4ccc(F)cc4O)nc(NC(=O)c4ccco4)c3C#N)c2)CC1 (as salt: hydrochloride) [Example 333, N-(3-cyano-6-(4-fluoro-2-hydroxyphenyl)-4-{3-[(4-methylpiperazin-1-yl)methyl]phenyl}pyridin-2-yl)-2-furamide dihydrochloride]"
3,259 to 260 °C,"N#Cc1c(-c2cccc(N)c2)cc(-c2ccccc2O)nc1NC(=O)c1ccc(Cl)s1 [Example 32, N-[4-(3-aminophenyl)-3-cyano-6-(2-hydroxyphenyl)pyridin-2-yl]-5-chlorothiophene-2-carboxamide]"
4,225 to 226 °C,"N#Cc1c(-c2cccc(NC(=O)CCN)c2)cc(-c2ccccc2O)nc1NC(=O)c1ccccc1 (as salt: trifluoroacetate) [Example 31, N-[4-(3-(β-alanylamino)phenyl)-3-cyano-6-(2-hydroxyphenyl)pyridin-2-yl]benzamide trifluoroacetate]"
5,218 to 219 °C,"N#Cc1c(-c2cccc(C(=O)NCCO)c2)cc(-c2ccccc2O)nc1NC(=O)c1cccs1 [Example 35, N-[3-cyano-4-(3-{[(2-hydroxyethyl)amino]carbonyl}phenyl)-6-(2-hydroxyphenyl)pyridin-2-yl]thiophene-2-carboxamide]"
6,259 to 261 °C,"N#Cc1c(-c2cccc(N)c2)cc(-c2ccccc2O)nc1NC(=O)c1ccccc1 [Example 28, N-[4-(3-aminophenyl)-3-cyano-6-(2-hydroxyphenyl)pyridin-2-yl]benzamide]"
7,160 to 167 °C,"N#Cc1c(-c2cccc(NC(=O)CCN)c2)cc(-c2ccc(Cl)cc2O)nc1NC(=O)c1ccccc1 (as salt: trifluoroacetate) [Example 51, N-{4-[3-(β-alanylamino)phenyl]-6-(4-chloro-2-hydroxyphenyl)-3-cyanopyridin-2-yl}benzamide trifluoroacetate]"
8,220 to 221 °C,"CC(C)(C)OC(=O)NCCC(=O)Nc1cccc(-c2cc(-c3ccccc3O)nc(NC(=O)c3ccccc3)c2C#N)c1 [Example 30, tert-butyl[3-({3-[2-(benzoylamino)-3-cyano-6-(2-hydroxyphenyl)pyridin-4-yl]phenyl}amino)-3-oxopropyl]carbamate]"
9,231 to 240 °C,"N#Cc1c(-c2cccc(NC(=O)[C@@H](N)CN)c2)cc(-c2ccc(F)cc2O)nc1NC(=O)c1ccco1 (as salt: hydrochloride) [Example 302, N-[4-{3-[(3-amino-L-alanyl)amino]phenyl}-3-cyano-6-(4-fluoro-2-hydroxyphenyl)pyridin-2-yl]-2-furamide dihydrochloride]"
10,233 to 238 °C,COc1ccccc1C(=O)Nc1nc(-c2ccc(Cl)cc2O)cc(-c2cccc(NC(=O)CCN)c2)c1C#N.Cl
11,249 to 251 °C,Cl.N#Cc1c(-c2cccc(NC(=O)CN3CCCCC3)c2)cc(-c2ccc(F)cc2O)nc1NC(=O)c1ccco1
12,192 to 198 °C,Cl.N#Cc1c(-c2cccc(C(=O)NCCCN)c2)cc(-c2ccccc2O)nc1NC(=O)c1cccs1
13,277 to 278 °C (dec.),Cl.N#Cc1c(-c2cccc(NC(=O)CC3CCCCN3)c2)cc(-c2ccc(F)cc2O)nc1NC(=O)c1ccco1 (stereo not drawn) [Example 290]
14,227 to 229 °C,COc1ccccc1C(=O)Nc1nc(-c2ccc(Cl)cc2O)cc(-c2cccc(C(=O)NCCN)c2)c1C#N.Cl
15,138 to 144 °C,"CCN(CC)CCN(CC)c1cccc(-c2cc(-c3ccc(F)cc3O)nc(NC(=O)c3ccco3)c2C#N)c1 (as salt: hydrochloride) [Example 304, N-[3-cyano-4-{3-[[2-(diethylamino)ethyl] (ethyl)amino]phenyl}-6-(4-fluoro-2-hydroxyphenyl)pyridin-2-yl]-2-furamide dihydrochloride]"
16,210 to 217 °C,"N#Cc1c(-c2cccc(NC(=O)CN)c2)cc(-c2ccccc2O)nc1NC(=O)c1cccs1 (as salt: hydrochloride) [Example 12, N-[3-cyano-4-[3-(glycylamino)phenyl]-6-(2-hydroxyphenyl)pyridin-2-yl]thiophene-2-carboxamide dihydrochloride]"
17,164 to 170 °C,"COc1ccc(-c2cc(-c3cccc(NC(=O)CCN)c3)c(C#N)c(NC(=O)c3ccccc3)n2)c(O)c1 (as salt: trifluoroacetate) [Example 50, N-{4-[3-(β-alanylamino)phenyl]-3-cyano-6-(2-hydroxy-4-methoxyphenyl)pyridin-2-yl}benzamide trifluoroacetate]"
18,186 to 194 °C,"CN(C)CC(=O)Nc1cccc(-c2cc(-c3ccc(F)cc3O)nc(NC(=O)c3ccco3)c2CN(C)C)c1 (as salt: hydrochloride) [Example 300, N-[3-[(dimethylamino)methyl]-4-{3-[(N,N-dimethylglycyl)amino]phenyl}-6-(4-fluoro-2-hydroxyphenyl)pyridin-2-yl]-2-furamide dihydrochloride]"
